This note sets out measurements from patent US12583841B2, “Tetrahydropyrrolocyclic compound and application thereof” (Breakthrough Pharmaceuticals Inc., priority 2021, dated 2026).

The nature of series [1]: Drug concentration in brain tissue and plasma of SD rats. It counts as in vivo. To be noted: male, Sprague-Dawley (SD), po, SD rat, p.o. 30 mg/kg. On the procedure: 4 healthy SD rats aged 6-9 weeks were selected, and the […] given the test compound at 10 mg/kg by intragastric administration. 2 animals were randomly selected at 0.5 h and 2 h after administration, respectively. Plasma and brain tissue samples were collected, and LC-MS/MS method was used for quantitative analysis of all biological samples.
4 healthy male SD rats aged 6-9 weeks were selected and given the test compound by intragastric administration. 2 animals were randomly selected to be euthanized at 0.5 h and 2 h after administration, respectively. Plasma and brain tissue samples were collected, and LC-MS/MS method was used for quantitative analysis of all biological samples.

A short description of series [2]: Drug concentration in cerebrospinal fluid of Beagle dogs. It counts as in vivo. Conditions: male, po, Beagle dog, p.o. 5 mg/kg. On the procedure: 2 healthy male Beagle dogs were selected, and after intragastric administration of the test compound at 5 mg/kg, cerebrospinal fluid samples were taken at 0.5 h, 2 h and 6 h after the administration, respectively. Quantitative analysis of all biological samples was carried out by LC-MS/MS method, and the WinNonlin™ Version 6.3 (Pharsight, Mountain View, CA) pharmacokinetic software was used to calculate the relevant pharmacokinetic parameters by the non-compartmental model linear logarithmic trapezoidal method. AUC0-last represents area under the plasma concentration-time curve from time zero to the last detectable concentration time point; p.o. represents oral; i.v. represents intravenous injection; T1/2 represents half-life; CL represents clearance rate; Vd represents apparent volume of distribution; Cmax represents peak concentration; Tmax represents time to peak; F % represents oral bioavailability.

In the case of `COc1ccc(-n2nccn2)c(C(=O)N2C(c3nc4ccc(OC)cc4[nH]3)CC3CC32)c1` (stereo not drawn) [Compound 8], the Kp at 0.5 h in series [1] (brain / plasma, 0.5 h, read-out: Brain-to-blood ratio) turned out to be 0.25. Also, in series [1] (brain / plasma, 2 h, read-out: Brain-to-blood ratio), the Kp at 2 h was 0.19. Further, the concentration at 0.5 h worked out at 1390 nM in series [1] (brain, 0.5 h, read-out: Drug concentration in brain); 5600 nM in series [1] (plasma, 0.5 h, read-out: Drug concentration in plasma); 1160 nM in series [2] (0.5 h). The concentration at 2 h amounted to 212 nM in series [1] (brain, 2 h, read-out: Drug concentration in brain); 1100 nM in series [1] (plasma, 2 h, read-out: Drug concentration in plasma); 773 nM in series [2] (2 h). Further, the concentration at 6 h in series [2] (6 h) came to 110 nM.
